Measured values as given in patent US6465494B1, “Methods for treatment of cystic fibrosis” (Cell Pathways, Inc., priority 2001, dated 2002).
Counter-ions that a name gives are not always drawn.

Legend:
[1] = acute and seven-dose toxicity in dogs (capsules); conditions: dog, in vivo
Experimental: Therefore, these dogs were subsequently administered seven consecutive doses of 1000 mg/kg/day.

[2] = 91-day long-term safety assessment study in rats; format: in vivo
Source text: These changes were not associated with any gross clinical abnormality.

[3] = target: PDE5 (Homo sapiens, UniProt O76074); assay: cGMP PDE inhibition, 3H-cGMP hydrolysis: PDE5; format: biochemical; parameters: partially purified cGMP-specific PDE isolated from HT-29 cells; endogenous in cells; host or cells: HT-29
Experimental: (Thompson, W. J., Teraski, W. L., Epstein, P. M., Strada, S. J., Advances in Cyclic Nucleotide Research, 10:69-92, 1979, which is incorporated herein by reference). […] The mixture is incubated at 30° C. for 10 minutes with isolated PDE2 and/or PDE5. Reactions are terminated, for example, by boiling the reaction mixture for 75 seconds. After cooling on ice, 100 μl of 0.5 mg/mL snake venom (O. Hannah venom available from Sigma) is added and incubated for 10 minutes at 30° C. This reaction is then terminated by the addition of an alcohol, e.g. 1 mL of 100% methanol. Assay samples are applied to 1 mL Dowex 1-X8 column; and washed with 1 mL of 100% methanol. The amount of radioactivity in the breakthrough and the wash from the column is combined and measured with a scintillation counter. The degree of phosphodiesterase inhibition is determined by calculating the amount of radioactivity in drug-treated reactions and comparing against a control sample (a reaction mixture lacking the tested compound but with drug solvent).
Compounds of this invention are also PDE2 and PDE5 inhibitors as taught in part U.S. patent application Ser. No. 09/046,739 filed Mar. 24, 1998. […] The amount of radioactivity in the breakthrough and the wash from the columns in then measured with a scintillation counter. […]

## CC1=C(CC(=O)NCc2ccccc2)c2cc(F)ccc2/C1=C\c1ccncc1 [Example 38, (Z)-5-fluoro-2-methyl-(4-pyridylidene)-3-(N-benzyl)indenylacetamide hydrochloride]
[1]; both sexes, 1000 mg/kg, dogs, oral
  LD50: > 1000 mg/kg
[1]; 1000 mg/kg
  signs of toxicity: no signs of toxicity
[1]; 1000 mg/kg/day
  signs of drug-related effects: At no time in either dosing phase were any obvious signs of drug-related effects observed
[2]; 91 days
  clinical biochemistry and hematology: no changes in clinical biochemistry and hematology were evident
[2]; 91 days, 500 mg/kg/day
  microscopic finding, follicular cells: follicular cell hypertrophy
[2]; 91 days, 200 and 500 mg/kg/day
  microscopic finding, kidneys: increase in accumulation of hyalin droplets in the kidneys
  microscopic finding, liver: slight hepatocellular hypertrophy
[2]; 91 days, males and females at 200 and 500 mg/kg/day
  liver and thyroid/parathyroid weights: dose-related trend to increased liver and thyroid/parathyroid weights
[2]; oral, 91 consecutive days, 50, 200 and 500 mg/kg/day
  toxicological effects overall: did not produce any major toxicological effects
[3]
  IC50: 4 µM
